Test results taken from article PMC4114195, “Identification of a cyclic-di-GMP-modulating response regulator that impacts biofilm formation in a model sulfate reducing bacterium” (Frontiers in Microbiology, 2014).

Assays:
Format in all cases: biochemical
DVU0408 [1] = molecular target: T1, DVU0408 (Nitratidesulfovibrio vulgaris, UniProt Q72F10); test: HPLC, c-di-GMP hydrolysis with added GTP; conditions: 100 μM GTP, 100 μM c-di-GMP, 2 mM MnCl2; proposed allosteric at inactive GGDEF domain
T1 construct: gene DVU_0408; full length (gene 2148 bp, about 715 residues), GGDEF-EAL response regulator; E. coli
T1 sequence (Q72F10 1-715): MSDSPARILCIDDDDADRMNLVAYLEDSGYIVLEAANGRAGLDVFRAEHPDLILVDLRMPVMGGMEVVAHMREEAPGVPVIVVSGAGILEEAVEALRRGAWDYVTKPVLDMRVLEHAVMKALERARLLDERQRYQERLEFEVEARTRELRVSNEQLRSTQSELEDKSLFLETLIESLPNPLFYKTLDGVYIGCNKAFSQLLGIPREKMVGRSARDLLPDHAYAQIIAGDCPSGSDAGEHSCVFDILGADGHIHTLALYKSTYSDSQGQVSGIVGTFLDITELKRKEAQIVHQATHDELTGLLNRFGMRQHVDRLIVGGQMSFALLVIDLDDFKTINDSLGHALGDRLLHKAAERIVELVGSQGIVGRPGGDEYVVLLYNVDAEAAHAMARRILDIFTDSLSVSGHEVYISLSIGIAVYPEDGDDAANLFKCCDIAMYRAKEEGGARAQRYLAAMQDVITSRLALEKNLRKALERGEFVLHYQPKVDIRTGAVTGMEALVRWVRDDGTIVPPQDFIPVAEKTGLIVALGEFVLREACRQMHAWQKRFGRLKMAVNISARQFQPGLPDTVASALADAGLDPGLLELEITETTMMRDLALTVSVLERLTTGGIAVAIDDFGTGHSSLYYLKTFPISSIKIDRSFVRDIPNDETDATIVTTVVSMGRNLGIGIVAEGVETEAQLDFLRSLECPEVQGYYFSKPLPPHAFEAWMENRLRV

DVU0330 HD domain = molecular target: T2, DVU0330 HD domain (Nitratidesulfovibrio vulgaris, UniProt Q72F84); test: absorbance at […] nm, phosphodiesterase assay; conditions: 5 mM bis-pNPP, 1 or 10 mM MnCl2, pH 8.0
T2 construct: gene DVU_0330; isolated HD (HDOD, no GYP motif) domain 230-412; N-terminal 8xHis-Strep II-MBP tag cut by TEV; E. coli
T2 sequence (Q72F84 230-412): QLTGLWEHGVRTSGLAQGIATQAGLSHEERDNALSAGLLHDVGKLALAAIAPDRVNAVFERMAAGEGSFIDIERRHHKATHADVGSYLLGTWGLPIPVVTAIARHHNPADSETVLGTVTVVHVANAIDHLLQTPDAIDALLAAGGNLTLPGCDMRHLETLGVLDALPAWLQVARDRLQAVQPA

DVU1181 HD-GYP domain = molecular target: T3, DVU1181 HD-GYP domain (Nitratidesulfovibrio vulgaris, UniProt Q72CV2); test: absorbance at […] nm, phosphodiesterase assay; conditions: 5 mM bis-pNPP, 1 or 10 mM MnCl2, pH 8.0
T3 construct: gene DVU_1181; isolated HD-GYP domain 176-356; N-terminal 8xHis-Strep II-MBP tag cut by TEV; E. coli
T3 sequence (Q72CV2 176-356): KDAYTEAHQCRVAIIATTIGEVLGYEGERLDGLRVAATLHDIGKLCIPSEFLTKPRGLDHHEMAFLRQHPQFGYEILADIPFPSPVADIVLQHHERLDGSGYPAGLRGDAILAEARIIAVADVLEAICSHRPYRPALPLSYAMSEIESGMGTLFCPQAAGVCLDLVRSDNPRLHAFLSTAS

DVU2933 HD-GYP domain = molecular target: T4, DVU2933 HD-GYP domain (Nitratidesulfovibrio vulgaris, UniProt Q727C2); test: HILIC-TOF MS, c-di-GMP hydrolysis; conditions: 100 μM c-di-GMP, 10 mM MnCl2, pH 8.0, room temperature, 24 h
T4 construct: gene DVU_2933; isolated HD-GYP domain 282-458; N-terminal 6xHis tag cut by TEV; E. coli
T4 sequence (Q727C2 282-458): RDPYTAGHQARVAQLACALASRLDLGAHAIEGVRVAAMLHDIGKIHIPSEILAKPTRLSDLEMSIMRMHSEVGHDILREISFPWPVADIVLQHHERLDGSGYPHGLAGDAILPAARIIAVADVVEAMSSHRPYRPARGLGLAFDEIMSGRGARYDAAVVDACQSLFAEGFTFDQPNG

DVU0722 HD-GYP domain = molecular target: T5, DVU0722 HD-GYP domain (Nitratidesulfovibrio vulgaris, UniProt Q72E57); test: HILIC-TOF MS, c-di-GMP hydrolysis; conditions: 100 μM c-di-GMP, 10 mM MnCl2, pH 8.0, room temperature, 24 h
T5 construct: gene DVU_0722; isolated HD-GYP domain 336-518; N-terminal 8xHis-Strep II-MBP tag cut by TEV; E. coli
T5 sequence (Q72E57 336-518): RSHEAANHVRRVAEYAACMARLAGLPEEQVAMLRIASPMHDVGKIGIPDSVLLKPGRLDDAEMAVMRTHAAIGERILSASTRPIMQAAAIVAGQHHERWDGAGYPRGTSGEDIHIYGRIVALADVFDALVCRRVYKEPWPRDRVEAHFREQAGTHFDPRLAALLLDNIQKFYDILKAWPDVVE

DVU0408 [2] = molecular target: T1, DVU0408; test: HPLC, phosphodiesterase assay, pGpG formed; conditions: 100 μM c-di-GMP, 2 mM MnCl2
DVUA0086 HD-GYP domain = molecular target: T6, DVUA0086 HD-GYP domain (Nitratidesulfovibrio vulgaris, UniProt Q72WK3); test: HILIC-TOF MS, c-di-GMP hydrolysis; conditions: 100 μM c-di-GMP, 10 mM MnCl2, pH 8.0, room temperature, 24 h
T6 construct: isolated HD-GYP domain 164-363; N-terminal 6xHis tag cut by TEV; E. coli; gene on native plasmid pDV1
T6 sequence (Q72WK3 164-363): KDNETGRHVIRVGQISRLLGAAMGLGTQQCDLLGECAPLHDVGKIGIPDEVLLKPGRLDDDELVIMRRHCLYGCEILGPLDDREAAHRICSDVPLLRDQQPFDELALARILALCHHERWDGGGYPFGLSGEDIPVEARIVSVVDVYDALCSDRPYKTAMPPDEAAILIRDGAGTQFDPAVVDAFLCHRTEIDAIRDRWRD

Nc1nc2c(ncn2[C@@H]2O[C@H](COP(=O)(O)OP(=O)(O)OP(=O)(O)O)[C@@H](O)[C@H]2O)c(=O)[nH]1 [GTP]
HPLC, c-di-GMP hydrolysis with added GTP (DVU0408 [1]): There was an increase in the pGpG peak upon addition of GTP.

O=[N+]([O-])c1ccc(OP(=O)(O)Oc2ccc([N+](=O)[O-])cc2)cc1 [bis-pNPP]
absorbance at 410 nm, phosphodiesterase assay (DVU0330 HD domain): DVU0330 that lacks the GYP motif showed very low activity | absorbance at 410 nm, phosphodiesterase assay (DVU1181 HD-GYP domain): DVU0722 and DVU1181 showed slower activity

Nc1nc2c(ncn2[C@@H]2O[C@@H]3COP(=O)(O)O[C@H]4[C@@H](O)[C@H](n5cnc6c(=O)[nH]c(N)nc65)O[C@@H]4COP(=O)(O)O[C@H]3[C@H]2O)c(=O)[nH]1 [c-di-GMP]
HILIC-TOF MS, c-di-GMP hydrolysis (DVU2933 HD-GYP domain): DVU2933 protein had lower activity, but again pGpG was the main product formed. | HILIC-TOF MS, c-di-GMP hydrolysis (DVU0722 HD-GYP domain): DVU0722 protein also hydrolyzed most of the c-di-GMP to pGpG. | HPLC, phosphodiesterase assay, pGpG formed (DVU0408 [2]): it did have PDE activity against c-di-GMP | HILIC-TOF MS, c-di-GMP hydrolysis (DVUA0086 HD-GYP domain): DVUA0086 protein had maximum activity and completely hydrolyzed c-di-GMP
